Consider 24 compounds from patent US10829473B2, “Modulators of the cystic fibrosis transmembrane conductance regulator protein and methods of use” (AbbVie Overseas S.Á.R.L., priority 2017, dated 2020).

For the assay, the target named is T1, F508delCFTR (Homo sapiens, UniProt P13569, DEL508-508).
T1 construct: expressed in transfected cells; host or cells: CFBE41o- human lung derived epithelial cells (CFBE41o-F508delCFTR-HRP), doxycycline-inducible
The experiment in a line: Cell Surface Expression-Horse Radish Peroxidase (CSE-HRP) Assay.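 As to EC50 (with co-corrector): co-corrector chromenyl benzoic acid corrector at 2 or 3 µM.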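 As to Maximum % activity (without co-corrector): % of on-plate positive control chromenyl benzoic acid corrector at 2 or 3 µM.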 Format: cell-based. Particulars: for Maximum % activity (with co-corrector) / Emax: maximum at any tested concentration; for Emax: read-out: Maximum % activity (without co-corrector). An outline of the steps:
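Corrector compounds were given as 8-point 3-fold series from 20 or 30 μM, with or without a 2 μM co-corrector, for 18-24 h at 33 °C. Surface HRP was read by luminol luminescence as % of positive control; variable-Hill-slope sigmoidal fitting gave EC50 from triplicate plates.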

[1] abbreviates: test compound with co-corrector.
[2] abbreviates: test compound with co-corrector, read-out: EC50 (with co-corrector).
The mark [3] stands for this setting: test compound without co-corrector.
The mark [4] stands for this setting: test compound without co-corrector, read-out: EC50 (without co-corrector).
[5] abbreviates: test compound alone, without co-corrector, read-out: EC50 (without co-corrector).
Where [6] appears, read: with co-corrector, read-out: EC50 (with co-corrector).

Where two headings read alike, the source gives them in different places. Marks after values point to notes of the source that are not given here.

T1 sequence (P13569 with tags, fused parts or gaps DEL508-508): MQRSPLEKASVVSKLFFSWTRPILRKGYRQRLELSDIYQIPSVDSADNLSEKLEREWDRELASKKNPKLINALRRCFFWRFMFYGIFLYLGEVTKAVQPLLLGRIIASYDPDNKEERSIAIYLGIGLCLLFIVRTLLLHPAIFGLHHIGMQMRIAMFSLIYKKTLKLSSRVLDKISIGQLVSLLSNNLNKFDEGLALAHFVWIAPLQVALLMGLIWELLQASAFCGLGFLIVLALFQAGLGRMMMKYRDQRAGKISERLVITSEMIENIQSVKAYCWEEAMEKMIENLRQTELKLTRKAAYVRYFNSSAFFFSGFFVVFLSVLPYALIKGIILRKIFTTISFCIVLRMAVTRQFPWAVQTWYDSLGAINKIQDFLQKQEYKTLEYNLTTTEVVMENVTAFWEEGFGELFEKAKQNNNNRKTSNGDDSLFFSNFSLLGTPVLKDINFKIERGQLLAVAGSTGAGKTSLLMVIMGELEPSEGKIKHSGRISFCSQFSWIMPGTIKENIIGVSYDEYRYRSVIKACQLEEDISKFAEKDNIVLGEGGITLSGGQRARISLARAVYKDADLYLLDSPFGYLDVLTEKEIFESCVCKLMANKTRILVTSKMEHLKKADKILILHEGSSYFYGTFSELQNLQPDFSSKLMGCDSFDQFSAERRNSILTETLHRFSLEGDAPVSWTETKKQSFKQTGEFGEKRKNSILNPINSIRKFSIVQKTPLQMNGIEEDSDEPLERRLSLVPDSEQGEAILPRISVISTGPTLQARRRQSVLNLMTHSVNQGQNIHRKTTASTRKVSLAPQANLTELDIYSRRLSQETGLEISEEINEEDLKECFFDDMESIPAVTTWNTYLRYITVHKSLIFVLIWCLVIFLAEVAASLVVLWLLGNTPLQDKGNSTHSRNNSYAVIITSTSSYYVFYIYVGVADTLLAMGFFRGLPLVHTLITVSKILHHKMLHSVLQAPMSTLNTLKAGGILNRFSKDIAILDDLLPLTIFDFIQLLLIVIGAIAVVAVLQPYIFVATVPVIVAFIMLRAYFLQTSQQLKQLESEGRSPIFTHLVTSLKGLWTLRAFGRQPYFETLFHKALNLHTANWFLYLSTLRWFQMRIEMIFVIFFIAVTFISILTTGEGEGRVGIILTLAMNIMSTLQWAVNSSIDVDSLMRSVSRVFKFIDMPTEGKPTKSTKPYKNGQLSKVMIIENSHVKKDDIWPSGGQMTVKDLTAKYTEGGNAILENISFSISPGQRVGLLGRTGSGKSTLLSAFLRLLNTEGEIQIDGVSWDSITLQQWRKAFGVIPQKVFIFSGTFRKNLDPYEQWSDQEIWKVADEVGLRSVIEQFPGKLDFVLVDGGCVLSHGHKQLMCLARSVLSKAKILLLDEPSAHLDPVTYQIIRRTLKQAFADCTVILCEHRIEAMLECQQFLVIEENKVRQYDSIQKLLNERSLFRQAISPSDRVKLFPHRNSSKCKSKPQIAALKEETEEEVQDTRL

For `COCCOc1cnc(OC)cc1C1(C(=O)NS(=O)(=O)c2cccc3nc(C)ccc23)CC1` [GII-46, 1-[2-methoxy-5-(2-methoxyethoxy)pyridin-4-yl]-N-(2-methylquinoline-5-sulfonyl)cyclopropane-1-carboxamide], the “Maximum % activity (with co-corrector)” value under setting [1] was “++ (≥150 and <350)”. The EC50 (as a rule, the concentration giving half of the maximal effect) under setting [2] was 3 to 10 µM. Under setting [3], the “EC50 (without co-corrector)” value is on record as “++^a” and the Emax lay in the range of 50 to 150%.

With `COc1cc(C2(C(=O)NS(=O)(=O)c3cccc4nc(C)ccc34)CC2)c(OCC(F)F)cn1` [GIII-14], the “Maximum % activity (with co-corrector)” value under setting [1] was “+++ (≥350)”. Besides, the EC50 fell in the range of 3 to 10 µM under setting [2] and 3 to 10 µM under setting [4]. Further, the Emax under setting [3] is > 150%.

Take `COc1ccc(OC2CCC2)cc1C1(C(=O)NS(=O)(=O)c2cccc3ncccc23)CC1` [Example I-32, 1-[5-(cyclobutyloxy)-2-methoxyphenyl]-N-(quinoline-5-sulfonyl)cyclopropane-1-carboxamide]: the EC50 by setting is: under setting [5], < 3 µM; under setting [6], < 3 µM. The “Maximum % activity (with co-corrector)” value (with co-corrector) is listed as “+++ (≥350)”. For the same compound, where the note is “without co-corrector”, the Emax is > 150%.

Regarding `O=C(NS(=O)(=O)c1cccc2[nH]ccc12)C1(c2cc(C3CC3)cnc2N2CCCC2)CC1` [Example GI-34, 1-[5-cyclopropyl-2-(pyrrolidin-1-yl)pyridin-3-yl]-N-(1H-indole-4-sulfonyl)cyclopropane-1-carboxamide], the “Maximum % activity (with co-corrector)” value under setting [1] is reported as “+++ (≥350)”. For the same compound, the EC50 is < 3 µM under setting [2] and 3 to 10 µM under setting [4]. Moreover, the Emax under setting [3] was > 150%.

In the case of `COCC1CCN(c2ncc(C3CCC3)cc2C2(C(=O)NS(=O)(=O)c3cccc4ncccc34)CC2)CC1` [Example GI-121, 1-{5-cyclobutyl-2-[4-(methoxymethyl)piperidin-1-yl]pyridin-3-yl}-N-(quinoline-5-sulfonyl)cyclopropane-1-carboxamide], under setting [1], the “Maximum % activity (with co-corrector)” value is reported as “+++ (≥350)”. For the same compound, the EC50 is, setting by setting: under setting [2], < 3 µM; under setting [4], < 3 µM. Also, the Emax under setting [3] is > 150%.

In the case of `COc1cc(C2CCC2)cc(OC)c1C1(C(=O)NS(=O)(=O)c2cccc3ncn(C)c23)CC1` [Example III-123, 1-(4-cyclobutyl-2,6-dimethoxyphenyl)-N-(1-methyl-1H-benzimidazole-7-sulfonyl)cyclopropane-1-carboxamide], the EC50 by setting is: under setting [5], 3 to 10 µM; under setting [6], < 3 µM. Also, the “Maximum % activity (with co-corrector)” value (with co-corrector) is given as “+++ (≥350)”. Further, the Emax (without co-corrector) is > 150%.

With `COCCOc1ncc(C2CCC2)cc1C1(C(=O)NS(=O)(=O)c2cccc3nc(C)ccc23)CC1` [Example GI-94, 1-[5-cyclobutyl-2-(2-methoxyethoxy)pyridin-3-yl]-N-(2-methylquinoline-5-sulfonyl)cyclopropane-1-carboxamide], the “Maximum % activity (with co-corrector)” value under setting [1] was “+++ (≥350)”. Further, the EC50 is < 3 µM under setting [2] and < 3 µM under setting [4]. In addition, under setting [3], the Emax is > 150%.

Regarding `CCOc1ccc(C)cc1C1(C(=O)NS(=O)(=O)c2cccc3nc(N)ccc23)CC1` [Example I-89, N-(2-aminoquinoline-5-sulfonyl)-1-(2-ethoxy-5-methylphenyl)cyclopropane-1-carboxamide], the half-maximal effective concentration (EC50) under setting [5] is < 3 µM and the EC50 under setting [6] is < 3 µM. For the same compound, the “Maximum % activity (with co-corrector)” value (with co-corrector) is “+++ (≥350)”. In addition, the Emax (without co-corrector) is > 150%.

As to `CCCc1nc(C(F)(F)F)ccc1C1(C(=O)NS(=O)(=O)c2cccc3c2CCCN3)CC1` [Example GI-8, 1-[2-propyl-6-(trifluoromethyl)pyridin-3-yl]-N-(1,2,3,4-tetrahydroquinoline-5-sulfonyl)cyclopropane-1-carboxamide], the EC50 reads like this: under setting [5], < 3 µM; under setting [6], < 3 µM. For the setting “with co-corrector”, the “Maximum % activity (with co-corrector)” value was “+++ (≥350)”. Moreover, the Emax (without co-corrector) is > 150%.

Turning to `COc1ncc(C2CCC2)cc1C1(C(=O)NS(=O)(=O)c2cccn3nccc23)CC1` [Example I-19, 1-(5-cyclobutyl-2-methoxypyridin-3-yl)-N-(pyrazolo[1,5-a]pyridine-4-sulfonyl)cyclopropane-1-carboxamide], the EC50 is, setting by setting: under setting [5], < 3 µM; under setting [6], < 3 µM. Further, the “Maximum % activity (with co-corrector)” value (with co-corrector) is “+++ (≥350)”. Besides, the Emax (without co-corrector) was > 150%.

`COCCOc1ncc(OC)cc1C1(C(=O)NS(=O)(=O)c2cccc3[nH]ccc23)CC1` [GII-43, N-(1H-indole-4-siilfonyl)-1-[5-methoxy-2-(2-methoxyethoxy)pyridin-3-yl]cyclopropane-1-carboxamide]: the “Maximum % activity (with co-corrector)” value under setting [1] was “++ (≥150 and <350)”. Also, the concentration for a half-maximal effect (EC50) under setting [2] is 3 to 10 µM. Moreover, under setting [3], the “EC50 (without co-corrector)” value is given as “++^a” and the Emax lay in the range of 50 to 150%.

As to `CC(C)COc1cnc(Cl)c(C2(C(=O)NS(=O)(=O)c3cccc4ncccc34)CC2)c1` [GIII-5], under setting [1], the “EC50 (with co-corrector)” value is on record as “++^a”; the “Maximum % activity (with co-corrector)” value is “++ (≥150 and <350)”. Moreover, under setting [3], the “EC50 (without co-corrector)” value was “++^a” and the Emax was < 50%.

As to `O=C(NS(=O)(=O)c1ccc2c(c1)CCC2)C1(c2ccc(Cl)cc2Cl)CC1` [Example III-8, 1-(2,4-dichlorophenyl)-N-(2,3-dihydro-1H-indene-5-sulfonyl)cyclopropane-1-carboxamide], the EC50 runs as follows: under setting [5], > 10 µM; under setting [6], 3 to 10 µM. For the same compound, for the setting “with co-corrector”, the “Maximum % activity (with co-corrector)” value is “++ (≥150 and <350)”. In addition, the Emax (without co-corrector) is < 50%.

In the case of `COc1ncc(C2CCC2)c(C)c1C1(C(=O)NS(=O)(=O)c2cccc3nc(C)ccc23)CC1` [II-33], the EC50 is 3 to 10 µM under setting [5] and < 3 µM under setting [6]. In addition, where the note is “with co-corrector”, the “Maximum % activity (with co-corrector)” value was “+++ (≥350)”. The Emax (without co-corrector) was > 150%.

With `COc1ccc(C2CC2)cc1C1(C(=O)NS(=O)(=O)c2cccc3ccccc23)CC1` [Example I-12, 1-(5-cyclopropyl-2-methoxyphenyl)-N-(naphthalene-1-sulfonyl)cyclopropane-1-carboxamide], the EC50 by setting is: under setting [5], < 3 µM; under setting [6], < 3 µM. Moreover, the “Maximum % activity (with co-corrector)” value (with co-corrector) is recorded as “+++ (≥350)”. The Emax (without co-corrector) was > 150%.

As for `CCc1cnc(N(C)C)c(C2(C(=O)NS(=O)(=O)c3cccc4ncccc34)CC2)c1` [GII-47, 1-[2-(dimethylamino)-5-ethylpyridin-3-yl]-N-(quinoline-5-sulfonyl)cyclopropane-1-carboxamide], under setting [1], the “Maximum % activity (with co-corrector)” value is on record as “+++ (≥350)”. In addition, the EC50 under setting [2] was > 10 µM and the EC50 under setting [4] lay within 3 to 10 µM. For the same compound, under setting [3], the Emax is > 150%.

With `O=C(NS(=O)(=O)c1cccc2c1CCCN2)C1(c2cc(C3CC3)cnc2N2CCCC2)CC1` [GII-29, 1-[5-cyclopropyl-2-(pyrrolidin-1-yl)pyridin-3-yl]-N-(1,2,3,4-tetrahydroquinoline-5-sulfonyl)cyclopropane-1-carboxamide], the “Maximum % activity (with co-corrector)” value under setting [1] is “+++ (≥350)”. In addition, the EC50 runs as follows: under setting [2], 3 to 10 µM; under setting [4], 3 to 10 µM. Moreover, the Emax under setting [3] is > 150%.

As to `COc1ccc(C2CC2)c(C)c1C1(C(=O)NS(=O)(=O)c2cccc3c2CCCN3)CC1` [II-37], the 50% effective concentration (EC50) is, setting by setting: under setting [5], < 3 µM; under setting [6], < 3 µM. Further, the “Maximum % activity (with co-corrector)” value (with co-corrector) is “+++ (≥350)”. Besides, the Emax (without co-corrector) was > 150%.

As for `COc1ncc(C(F)(F)F)cc1C1(C(=O)NS(=O)(=O)c2cccc3cnn(C)c23)CC1` [Example III-97, 1-[2-methoxy-5-(trifluoromethyl)pyridin-3-yl]-N-(1-methyl-1H-indazole-7-sulfonyl)cyclopropane-1-carboxamide], the EC50 was 3 to 10 µM under setting [5] and 3 to 10 µM under setting [6]. Moreover, under “with co-corrector”, the “Maximum % activity (with co-corrector)” value is recorded as “+++ (≥350)”. Besides, the Emax (without co-corrector) was > 150%.

Take `COc1ccc(C2CCC2)c(C2(C(=O)NS(=O)(=O)c3cccc4nc(C)ccc34)CC2)c1` [II-47]: the EC50 is < 3 µM under setting [5] and < 3 µM under setting [6]. For the same compound, the “Maximum % activity (with co-corrector)” value (with co-corrector) is given as “+++ (≥350)”. Besides, the Emax (without co-corrector) was > 150%.

For `COc1ncc(C2CCC2)c(C)c1C1(C(=O)NS(=O)(=O)c2cccc3c2CCCN3)CC1` [II-38], the half-maximal effective concentration (EC50) under setting [5] lay within 3 to 10 µM and the EC50 under setting [6] is < 3 µM. The “Maximum % activity (with co-corrector)” value (with co-corrector) was “+++ (≥350)”. Also, where the note is “without co-corrector”, the Emax was > 150%.

Regarding `Cc1ccc2c(S(=O)(=O)NC(=O)C3(c4cc(C5CCC5)cnc4N4CCN(C)CC4)CC3)cccc2n1` [GIII-32], under setting [1], the “Maximum % activity (with co-corrector)” value is given as “+ (<150)”. Moreover, the EC50 was > 10 µM under setting [2] and > 10 µM under setting [4]. Under setting [3], the Emax is < 50%.

For `Cc1ccc2c(S(=O)(=O)NC(=O)C3(c4nc(OCC(C)C)ccc4OC(C)C)CC3)cccc2n1` [Example GI-90, 1-{6-(2-methylpropoxy)-3-[(propan-2-yl)oxy]pyridin-2-yl}-N-(2-methylquinoline-5-sulfonyl)cyclopropane-1-carboxamide], the “Maximum % activity (with co-corrector)” value under setting [1] is recorded as “+++ (≥350)”. The EC50 reads like this: under setting [2], < 3 µM; under setting [4], < 3 µM. Under setting [3], the Emax is > 150%.

For `COc1ncc(C2CCC2)cc1C1(C(=O)NS(=O)(=O)c2cccc3nc(C)ccc23)CC1` [Example I-3, 1-(5-cyclobutyl-2-methoxypyridin-3-yl)-N-(2-methylquinoline-5-sulfonyl)cyclopropane-1-carboxamide], the EC50 was < 3 µM under setting [5] and < 3 µM under setting [6]. The “Maximum % activity (with co-corrector)” value (with co-corrector) is “+++ (≥350)”. Moreover, the Emax (without co-corrector) was > 150%.
